How the values were obtained:
HCC827 = assay: cells; conditions: Homo sapiens, HCC827, 72 h
MV4-11 = assay: Growth inhibition of human MV4-11 cells after 72 hrs by calcein AM dye-based fluorescence assay; format: functional; conditions: MV4-11, 72 h
in vitro [1] = conditions: human, BJ cells
in vitro [2] = conditions: human, MRC5 cells
MCF7 = assay: cells; conditions: Homo sapiens, MCF7, 72 h
in vitro [3] = conditions: human, HUVEC
THP-1 = assay: cells; conditions: Homo sapiens, THP-1, 72 h
K562 = assay: cells; conditions: Homo sapiens, K562, 72 h
[4] = molecular target: T1, Receptor-type tyrosine-protein kinase FLT3 (Homo sapiens, UniProt P36888); assay: biochemical; format: cell-based, Sf9
T1 sequence (P36888 whole entry): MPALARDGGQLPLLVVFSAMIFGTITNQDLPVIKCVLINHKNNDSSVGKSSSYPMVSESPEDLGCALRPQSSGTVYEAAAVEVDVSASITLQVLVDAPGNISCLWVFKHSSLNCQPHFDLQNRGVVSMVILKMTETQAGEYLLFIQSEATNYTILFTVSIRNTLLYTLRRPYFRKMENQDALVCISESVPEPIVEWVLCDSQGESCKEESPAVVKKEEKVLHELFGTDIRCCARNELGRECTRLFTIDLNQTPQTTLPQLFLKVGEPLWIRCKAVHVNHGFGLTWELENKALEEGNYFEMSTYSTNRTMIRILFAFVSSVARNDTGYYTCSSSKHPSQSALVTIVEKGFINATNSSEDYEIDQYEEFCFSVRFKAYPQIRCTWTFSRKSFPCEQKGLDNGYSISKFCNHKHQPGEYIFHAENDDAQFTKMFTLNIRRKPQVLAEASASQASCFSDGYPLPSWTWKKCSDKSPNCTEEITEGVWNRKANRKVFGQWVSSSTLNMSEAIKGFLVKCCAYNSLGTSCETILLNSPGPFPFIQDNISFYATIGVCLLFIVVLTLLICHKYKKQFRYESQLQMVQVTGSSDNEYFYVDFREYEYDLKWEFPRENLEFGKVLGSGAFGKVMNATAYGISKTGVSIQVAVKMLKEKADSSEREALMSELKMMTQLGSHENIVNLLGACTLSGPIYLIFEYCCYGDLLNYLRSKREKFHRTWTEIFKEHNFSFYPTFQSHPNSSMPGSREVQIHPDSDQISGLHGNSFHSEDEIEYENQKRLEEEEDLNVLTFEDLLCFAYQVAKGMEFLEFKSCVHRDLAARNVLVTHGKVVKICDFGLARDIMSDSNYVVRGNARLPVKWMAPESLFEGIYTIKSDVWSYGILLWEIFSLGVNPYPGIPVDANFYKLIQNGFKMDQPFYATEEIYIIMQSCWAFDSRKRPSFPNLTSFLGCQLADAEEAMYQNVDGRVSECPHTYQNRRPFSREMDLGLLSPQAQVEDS
Description: Inhibition of N-terminal GST/His6-fused recombinant wild type human FLT3 (R571 to S993 residues) expressed in Sf9 insect cells using poly (Ala,Glu,Lys,Tyr) 6:2:5:1 hydrobromide as substrate in presence of [gamma-33P]ATP

MOLM-13 = assay: cells; conditions: Homo sapiens, MOLM-13, 72 h
Kasumi 1 = assay: cells; conditions: Homo sapiens, Kasumi 1, 72 h
[5] = molecular target: Receptor-type tyrosine-protein kinase FLT3 (Homo sapiens, UniProt P36888, D835Y); assay: biochemical; format: cell-based, Sf9
Description: Inhibition of N-terminal GST/His6-fused recombinant human FLT3 (R571 to S993 residues) D835Y mutant expressed in Sf9 insect cells using poly (Ala,Glu,Lys,Tyr) 6:2:5:1 hydrobromide as substrate in presence of [gamma-33P]ATP

[6] = molecular target: Receptor-type tyrosine-protein kinase FLT3 (Homo sapiens, UniProt P36888, ITD); assay: biochemical; format: cell-based, Sf9
Description: Inhibition of N-terminal GST/His6-fused recombinant human FLT3 (R571 to S993 residues) ITD mutant expressed in Sf9 insect cells using poly (Ala,Glu,Lys,Tyr) 6:2:5:1 hydrobromide as substrate in presence of [gamma-33P]ATP

U-937 = assay: cells; conditions: Homo sapiens, U-937, 72 h

| Structure (SMILES) | GI50 (HCC827) | GI50 (MV4-11) | GI50 at 72 h (in vitro [1]) | GI50 at 72 h (in vitro [2]) | GI50 (MCF7) | GI50 at 72 h (in vitro [3]) | GI50 (THP-1) | GI50 (K562) | IC50 [4] | GI50 (MOLM-13) | GI50 (Kasumi 1) | IC50 [5] | IC50 [6] | GI50 (U-937) |
| --- | --- | --- | --- | --- | --- | --- | --- | --- | --- | --- | --- | --- | --- | --- |
| N[C@H]1CC[C@H](Nc2nc(Nc3ccc(N4CCCC4)cc3)c3ncn(C4CCCC4)c3n2)CC1 | 1070 nM | 18 nM | 15900 nM | 14000 nM | 487 nM | 12100 nM | 3110 nM | 940 nM | 21 nM | 24 nM | 569 nM | 11 nM | 3 nM | 3170 nM |
| c1ccc(CNc2nc(Nc3ccc(CN4CCOCC4)cc3)c3ncn(C4CCCC4)c3n2)cc1 | > 5000 nM | 196 nM | > 25000 nM | 23900 nM | 8600 nM | 10100 nM | > 10000 nM | 3600 nM | 83 nM | 122 nM | 4760 nM | 624 nM | 26 nM | 9790 nM |
| CCN1CCN(c2ccc(Nc3nc(N[C@H]4CC[C@H](N)CC4)nc4c3ncn4C3CCCC3)cc2)CC1 | 592 nM | 1 nM | 12900 nM | 22000 nM | 1050 nM | 4440 nM | 514 nM | 2070 nM | 10 nM | 4 nM | 839 nM | 2 nM | 3 nM | 605 nM |
| N[C@H]1CC[C@H](Nc2nc(Nc3ccc(N4CCOCC4)cc3)c3ncn(C4CCCC4)c3n2)CC1 | 521 nM | 2 nM | 12200 nM | 23300 nM | 320 nM | 4530 nM | 1160 nM | 965 nM | 21 nM | 4 nM | 816 nM | 7 nM | 2 nM | 1570 nM |
| N[C@H]1CC[C@H](Nc2nc(Nc3ccc(Br)cc3)c3ncn(C4CCCC4)c3n2)CC1 | 1280 nM | 10 nM | 14700 nM | 20600 nM | 520 nM | 10100 nM | 2280 nM | 670 nM | 16 nM | 15 nM | 481 nM | 4 nM | 4 nM | 1800 nM |
| N[C@H]1CC[C@H](Nc2nc(Nc3ccc(N4CC5(COC5)C4)cc3)c3ncn(C4CCCC4)c3n2)CC1 | 456 nM | 3 nM | 14600 nM | 9800 nM | 1060 nM | 5950 nM | 693 nM | 1220 nM | 13 nM | 4 nM | 734 nM | 28 nM | 4 nM | 638 nM |
